Measurements reported in the CheMixHub ionic liquid set.

Assay: xn = mol fraction of the nth substance listed

CC[NH3+].O=[N+]([O-])[O-] + O=[N+]([O-])[O-].O=[N+]([O-])[O-].[Ca+2] + O
100 kPa
Conditions | electrical conductivity [S/m] | viscosity [mPa·s]
223 K, x2 = 0.05128, x3 = 0.1778 | 0.001 | –
233 K, x2 = 0.05128, x3 = 0.1778 | 0.009 | –
233 K, x2 = 0.09755, x3 = 0.3019 | 0.009 | –
243 K, x2 = 0.05128, x3 = 0.1778 | 0.034 | –
243 K, x2 = 0.09755, x3 = 0.3019 | 0.034 | –
253 K, x2 = 0.05128, x3 = 0.1778 | 0.095 | –
253 K, x2 = 0.09755, x3 = 0.3019 | 0.095 | –
263 K, x2 = 0.05128, x3 = 0.1778 | 0.209 | –
263 K, x2 = 0.09755, x3 = 0.3019 | 0.209 | –
273 K, x2 = 0.05128, x3 = 0.1778 | 0.394 | –
273 K, x2 = 0.09755, x3 = 0.3019 | 0.394 | –
283 K, x2 = 0.05128, x3 = 0.1778 | 0.662 | –
283 K, x2 = 0.09755, x3 = 0.3019 | 0.662 | –
288.15 K, x2 = 0.05128, x3 = 0.1778 | – | 131.6
288.15 K, x2 = 0.09755, x3 = 0.3019 | – | 160.5
293 K, x2 = 0.05128, x3 = 0.1778 | 1.02 | –
293 K, x2 = 0.09755, x3 = 0.3019 | 1.02 | –
293.15 K, x2 = 0.05128, x3 = 0.1778 | – | 106.7
293.15 K, x2 = 0.09755, x3 = 0.3019 | – | 127.9
298.15 K, x2 = 0.05128, x3 = 0.1778 | – | 87.1
298.15 K, x2 = 0.09755, x3 = 0.3019 | – | 102.8
303 K, x2 = 0.05128, x3 = 0.1778 | 1.47 | –
303 K, x2 = 0.09755, x3 = 0.3019 | 1.47 | –
303.15 K, x2 = 0.05128, x3 = 0.1778 | – | 71.6
303.15 K, x2 = 0.09755, x3 = 0.3019 | – | 83.2
308.15 K, x2 = 0.05128, x3 = 0.1778 | – | 59.2
308.15 K, x2 = 0.09755, x3 = 0.3019 | – | 67.8
313 K, x2 = 0.05128, x3 = 0.1778 | 2.01 | –
313 K, x2 = 0.09755, x3 = 0.3019 | 2.01 | –
313.15 K, x2 = 0.05128, x3 = 0.1778 | – | 49.3
313.15 K, x2 = 0.09755, x3 = 0.3019 | – | 55.59
323 K, x2 = 0.05128, x3 = 0.1778 | 2.64 | –
323 K, x2 = 0.09755, x3 = 0.3019 | 2.64 | –
333 K, x2 = 0.05128, x3 = 0.1778 | 3.35 | –
333 K, x2 = 0.09755, x3 = 0.3019 | 3.35 | –
343 K, x2 = 0.05128, x3 = 0.1778 | 4.13 | –
343 K, x2 = 0.09755, x3 = 0.3019 | 4.13 | –
353 K, x2 = 0.05128, x3 = 0.1778 | 4.98 | –
353 K, x2 = 0.09755, x3 = 0.3019 | 4.98 | –
363 K, x2 = 0.05128, x3 = 0.1778 | 5.89 | –
363 K, x2 = 0.09755, x3 = 0.3019 | 5.89 | –
373 K, x2 = 0.05128, x3 = 0.1778 | 6.84 | –
373 K, x2 = 0.09755, x3 = 0.3019 | 6.84 | –

C[N+](C)(C)CCC[N+]1(C)CCCCC1.N#C[N-]C#N.N#C[N-]C#N + CO
100 kPa
Conditions | viscosity [mPa·s]
293.15 K, x1 = 0.5002 | 271
293.15 K, x1 = 0.6001 | 585
303.15 K, x1 = 0.2001 | 11.3
303.15 K, x1 = 0.3002 | 28.5
303.15 K, x1 = 0.5002 | 160
323.15 K, x1 = 0.0999 | 2.73
323.15 K, x1 = 0.3002 | 15.7
333.15 K, x1 = 0.3999 | 24.9

CC[NH3+].O=[N+]([O-])[O-] + CC#N
100 kPa
Conditions | electrical conductivity [S/m] | viscosity [mPa·s]
278 K, x1 = 0.3 | 2.52 | –
288 K, x1 = 0.7 | 2.71 | –
288.08 K, x1 = 0.7 | – | 20.78
288.08 K, x1 = 0.98 | – | 43.7
288.09 K, x1 = 0.3 | – | 3.15
293.09 K, x1 = 0.3 | – | 2.819
298 K, x1 = 0.7 | 3.71 | 14.73
298.1 K, x1 = 0.98 | – | 33.2
298.14 K, x1 = 0.2 | – | 1.406
308 K, x1 = 0.2 | 5.19 | –
308 K, x1 = 0.7 | 4.94 | –
308.09 K, x1 = 0.8 | – | 14.76
308.11 K, x1 = 0.9 | – | 20.7
308.12 K, x1 = 0.6 | – | 7.76
308.14 K, x1 = 0.7 | – | 10.53
308.15 K, x1 = 0.3 | – | 2.292

C[P+](c1ccccc1)(c1ccccc1)c1ccccc1.[Br-] + OCCO
Conditions | viscosity [mPa·s]
298.15 K, 100 kPa, x1 = 0.1 | 35
298.2 K, 101 kPa, x1 = 0.2 | 121
303.15 K, 100 kPa, x1 = 0.33 | 116.5
303.15 K, 100 kPa, x2 = 0.8333 | 56.5
303.15 K, 100 kPa, x2 = 0.9091 | 30.5
303.15 K, 100 kPa, x2 = 0.9756 | 17.6
313.15 K, 100 kPa, x1 = 0.1 | 18.24
313.15 K, 100 kPa, x1 = 0.33 | 65.5
313.15 K, 100 kPa, x2 = 0.9756 | 13
323.15 K, 100 kPa, x2 = 0.9756 | 9.5
323.15 K, 101 kPa, x1 = 0.25 | 31.72
333.15 K, 100 kPa, x2 = 0.9756 | 7.5
343.15 K, 100 kPa, x2 = 0.9756 | 6
353.15 K, 100 kPa, x2 = 0.9756 | 5.1

CCCCCCCCCCCCCCCC[N+](C)(C)C.[Br-] + NCC(=O)O + O
viscosity [mPa·s], 101 kPa
Conditions | 298.15 K | 303.15 K | 308.15 K | 313.15 K
x2 = 0.003591, x1 = 3.46e-06 | 0.906 | 0.819 | 0.74 | 0.67
x2 = 0.003591, x1 = 8.2e-06 | 0.909 | 0.82 | 0.742 | 0.671
x2 = 0.003591, x1 = 1.13e-05 | 0.912 | 0.82 | 0.745 | 0.672
x2 = 0.003591, x1 = 1.44e-05 | 0.914 | 0.825 | 0.749 | 0.674
x2 = 0.003591, x1 = 1.731e-05 | 0.922 | 0.827 | 0.752 | 0.675
x2 = 0.003591, x1 = 2.096e-05 | 0.93 | 0.831 | 0.755 | 0.678
x2 = 0.003591, x1 = 2.333e-05 | 0.932 | 0.843 | 0.757 | 0.68
x2 = 0.003591, x1 = 2.752e-05 | 0.936 | 0.847 | 0.759 | 0.683
x2 = 0.003591, x1 = 3.171e-05 | 0.94 | 0.853 | 0.761 | 0.689
x2 = 0.003591, x1 = 3.572e-05 | 0.94 | 0.855 | 0.764 | 0.692
x2 = 0.005377, x1 = 3.48e-06 | 0.879 | 0.801 | 0.725 | 0.644
x2 = 0.005377, x1 = 8.25e-06 | 0.881 | 0.804 | 0.726 | 0.644
x2 = 0.005377, x1 = 1.136e-05 | 0.884 | 0.805 | 0.726 | 0.645
x2 = 0.005377, x1 = 1.448e-05 | 0.886 | 0.807 | 0.727 | 0.647
x2 = 0.005377, x1 = 1.741e-05 | 0.89 | 0.808 | 0.728 | 0.648
x2 = 0.005377, x1 = 2.108e-05 | 0.893 | 0.811 | 0.731 | 0.649
x2 = 0.005377, x1 = 2.346e-05 | 0.896 | 0.813 | 0.733 | 0.65
x2 = 0.005377, x1 = 2.767e-05 | 0.9 | 0.816 | 0.736 | 0.651
x2 = 0.005377, x1 = 3.189e-05 | 0.906 | 0.823 | 0.738 | 0.653
x2 = 0.005377, x1 = 3.592e-05 | 0.912 | 0.828 | 0.741 | 0.655
x2 = 0.007156, x1 = 3.5e-06 | 0.914 | 0.848 | – | –
x2 = 0.007156, x1 = 8.29e-06 | 0.918 | 0.852 | – | –
x2 = 0.007156, x1 = 1.143e-05 | 0.92 | 0.855 | – | –
x2 = 0.007156, x1 = 1.456e-05 | 0.922 | 0.859 | – | –
x2 = 0.007156, x1 = 1.751e-05 | 0.925 | 0.864 | – | –
x2 = 0.007156, x1 = 2.119e-05 | 0.926 | 0.868 | – | –
x2 = 0.007156, x1 = 2.359e-05 | 0.929 | 0.872 | – | –
x2 = 0.007156, x1 = 2.783e-05 | 0.933 | 0.876 | – | –
x2 = 0.007156, x1 = 3.206e-05 | 0.937 | 0.882 | – | –
x2 = 0.007156, x1 = 3.612e-05 | 0.944 | 0.886 | – | –
